Results from patent US11452781B2, “Method of preventing and treating type 1 diabetes, allograft rejection and lung fibrosis (by targeting the ATP/P2X7R axis)” (CHILDREN'S MEDICAL CENTER CORPORATION, priority 2013, dated 2022).
Entries after “also recorded” stand apart in the source; their conditions may differ.

Tests used:
STAT3 = STAT3 phosphorylation in CD4+ T cells of cardiac-transplanted mice (Western blot); format: in vivo, mouse; settings: 7 days after transplantation
Protocol: Several key components of T-cell receptor signaling involved in the alloimmune response were examined, and the phosphorylation kinetics following in vitro anti-CD3-Ig/anti-CD28-Ig-mediated CD4+ T-cell activation was evaluated by using the Luminex assay. […] The inventors first confirmed that Colivelin (Col) was able to restore the activation-induced phosphorylation of STAT3 in a dose-dependent manner in oATP-treated CD4+ T cells by Western blotting. […] The effect of oATP and Colivelin on STAT3 phosphorylation and T-cell function was also evaluated following cardiac transplantation.

[1] = tested on: OT1 splenocytes (CD8 T cells); assay: OT1 splenocytes stimulated with OVA peptide, proliferation; format: cell-based, mouse; settings: oATP 100 μM
Protocol: FIG. 16A depicts a graph of CD8 activation levels. To better assess the response of CD8 T cells, splenocytes isolated from OT1 mice were stimulated with OVA peptide with and without (positive control) oATP (100 μM) and T cell proliferation determined. […] FIG. 16C depicts photomicroscopy images and a graph of cell growth and survival. Freshly isolated human peripheral blood mononuclear cells (PBMCs, 4×10^5/ml) were applied onto pre-seeded A549 cells (at ˜20% confluency). Cells were cultured in RPMI medium supplemented with interferon gamma (IFNγ) with or without oATP for 7 days. […]
Outcome Measures—In vivo assessment of transplanted lung function was performed by thoracic CT scan imaging and measuring peak airway pressures (PawP) as previously described {Bizargity, #22}. ATP levels were measured from transplanted lung bronchoalveolar lavage fluid (BAL) by bioluminescent detection using Enliten ATP assay system (FF2000, Promega Corporation, Madison, Wis.). […] Immunohistochemistry was performed on frozen lung tissue sections utilizing CD4 and CD8 antibodies and isotype controls and assessed based on the average of 10 high power fields/lung allograft. […]
To assess the inhibitory actions of oATP upon CD8 cells, a CD8 specific response was analyzed by utilizing OT1 splenocytes stimulated with OVA peptide. […]

[2] = tested on: B6 recipients of BALB/c lung allografts; assay: Mouse orthotopic lung transplant, BALB/c donor and C57BL/6 recipient; format: in vivo
Protocol: Orthotopic left lung transplants were performed as previously described {Bizargity, #22; Iken, #21}. Briefly, donor mice were anesthetized with ketamine and xylazine, intubated with a 22 G Angiocath, and ventilated with isoflurane/oxygen. Lungs were flushed with ice cold phosphate buffered saline, left lung harvested and cuffs placed in the pulmonary artery, pulmonary vein and bronchus. Recipient mice were anesthetized and ventilated with isoflurane/oxygen, and left lung transplants performed via a thoracotomy and implantation of the three-cuffed hilar structures. Transplanted lungs were harvested 15 to 60-70 days following transplantation.
Allografts were evaluated 15, 30, and 60-70 days after transplant.
Outcome Measures—In vivo assessment of transplanted lung function was performed by thoracic CT scan imaging and measuring peak airway pressures (PawP) as previously described {Bizargity, #22}. […] Flow cytometry and enzyme-linked immunosorbent spot assay (ELISPOT) for interferon (IFN)-γ and interleukin (IL)-4 were performed as previously described {Vergani, #25; Vergani, #9}.

C57BL/6 splenocytes = assay: In vitro alloimmune ELISPOT, C57BL/6 responder splenocytes vs irradiated BALB/c splenocytes; format: cell-based, mouse
Description: The effect of increasing doses of oATP on Th1/Th17 cytokine levels was next tested. A dose-dependent response was evident, in which oATP reduced the number of cells producing Th1 cytokines (IFN-γ and IL-2) and Th17 cytokines (IL-6 and IL-17). Because it has been reported that oATP may affect other P2XRs, the inventors made use of the availability of the selective P2X1R inhibitor NF 449 and of the selective P2X3R inhibitor NF 110. C57BL/6 splenocytes were stimulated with irradiated BALB/c splenocytes, and IFN-γ production was evaluated in the presence of these inhibitors.

ABM CD4+ TCR-Tg T cells = assay: Alloantigen-specific ABM CD4+ TCR-Tg T cells, bm12 hearts into C57BL/6 Rag-/- mice; format: in vivo, mouse
Description: To address whether the inhibition of the effector T-cell compartment is related to reduced priming and expansion of alloreactive T cells or to their increased apoptosis, alloreactive-specific T cells were tracked in a transgenic model of cardiac transplantation. Bm12 hearts were transplanted into C57BL/6 Rag−/− mice, and 3×10^6 ABM CD4+ TCR-Tg T cells (specific for bm12 major histocompatibility complex class II antigens) were subsequently adoptively transferred into cardiac transplant recipients.

Substance: periodate-oxidized ATP [oATP]
- phosphorylated STAT3 in CD4+ T cells (STAT3): reduced levels
- allo-specific CD8 activation/proliferation [1]: dramatic reduction; also recorded: significant reduction
- lung function (PawP) ([2]; 15 to ≥60 days): significantly improved
- percentage of Th17 cells ([2]; 15 days): not a significant difference
- total number of Th17 cells ([2]; 15 days): reduction; also recorded: fewer
- total number of Treg ([2]; 15 days): reduction; also recorded: fewer
- BAL ATP levels ([2]; 15 days post transplant): significant reduction
- acute rejection, comparison of treatments (FIG. 17) ([2]; 30 days, CSA 10 mg/kg/day, CTLA-4Ig 250 μg, oATP 250 μg/day, Rap 0.1 mg/kg/day): better outcomes than cyclosporine alone; also recorded: more robust as compared to CSA
- thoracic CT imaging of left lung allografts ([2]; all three time points): little infiltrate
- number of leucocytes and lymphocytes isolated from lung allografts ([2]; day 15, flow cytometry, vs untreated): nearly half; also recorded: significantly fewer
- effector memory T cells (CD44highCD62Llow) ([2]; lung allograft T cells): inhibitory effect; also recorded: significant reduction
- IFN-γ and IL-4 response of isolated T cells (ELISPOT) ([2]; most pronounced after 15 days): impaired
- CD4 and CD8 T cells within lung allografts ([2]; mouse, in vivo): decrease
- amount of inflammation (score 0-4) / histology ([2]; mouse, in vivo): remarkable reduction; also recorded: limited disease
- percentage of CD8 Tcm (CD8+CD44+CD62L+CCR7+) ([2]; mouse, in vivo): increased
- percentage of Treg ([2]; mouse, in vivo): not a remarkable difference
- lung allograft survival / function ([2]; oATP daily IP): > 60 days
- lung function (PawP) after rescue dosing ([2]; oATP days 15-30): improved; also recorded: significant improvement
- IL-4 production (C57BL/6 splenocytes; increasing concentrations of oATP): dose-dependent increase
- number of cells producing Th1 (IFN-γ, IL-2) and Th17 (IL-6, IL-17) cytokines (C57BL/6 splenocytes; increasing doses, dose-dependent): reduced
- TCR-Tg T-cell apoptosis (ABM CD4+ TCR-Tg T cells; 4 days following adoptive transfer): without substantial differences
- ABM CD4+ TCR-Tg T-cell proliferation (CFSE dilution) (ABM CD4+ TCR-Tg T cells; mouse, in vivo): decrease
- numbers of Teffs and Th17 cells within the Tg population (ABM CD4+ TCR-Tg T cells; mouse, in vivo): marked reduction
- numbers of ABM CD4+ TCR-Tg T cells (ABM CD4+ TCR-Tg T cells; seven days posttransplantation): reduced numbers
